From patent US20040096951A1, “Crystal structures of retaining glycosytransferases” (priority 2003, published 2004)
Where a name gives a salt, the structure may show the parent alone.

What was measured:
[1] = target: T1, LgtC (Neisseria meningitidis, UniProt Q93EK7); test: biochemical; type: biochemical; conditions: for Function as a substrate for LgtC (transfer): galactosyl β-1,6-lactose incubated in the presence of UDP plus the usual buffer components
T1 construct: a deletion mutant of LgtC missing the C-terminal 25 residues; made in house; host or cells: E. coli (AD202)
T1 sequence (Q93EK7 entry or part of it): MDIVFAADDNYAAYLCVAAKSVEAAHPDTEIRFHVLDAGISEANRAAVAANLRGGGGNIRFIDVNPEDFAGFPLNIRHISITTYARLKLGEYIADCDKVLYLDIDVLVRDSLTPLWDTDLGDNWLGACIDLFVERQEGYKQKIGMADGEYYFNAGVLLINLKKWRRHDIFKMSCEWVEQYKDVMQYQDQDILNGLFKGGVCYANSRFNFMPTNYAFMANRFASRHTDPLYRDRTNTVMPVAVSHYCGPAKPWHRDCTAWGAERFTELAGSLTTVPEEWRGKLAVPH
Procedure: (§1) Synthesis of UDP-2Fgal was achieved essentially as described previously (ref. 19). Syntheses of 4′-deoxylactose, 6′-deoxylactose and galactosyl β-1,6-lactose will be described elsewhere. Kinetic studies were performed at 30° C. in 20 mM HEPES, pH 7.5 containing 0.1% bovine serum albumin, 50 mM KCl, 5 mM MnCl2 and 5 mM DTT. […] The change in absorbance was measured by means of a UNICAM 8700 UV-Vis spectrophotometer equipped with a circulating water bath. Kinetic parameters were calculated by direct fit of the initial rates to the respective equations using Grafit version 3.0 (ref.43).

[2] = target: T2, LgtC (Neisseria meningitidis, UniProt Q93EK7, Q189A); test: biochemical; type: biochemical; conditions: Q189A mutant; added reagent
T2 construct: a deletion mutant of LgtC missing the C-terminal 25 residues; made in house; host or cells: E. coli (AD202)
T2 sequence (Q93EK7 1-286 Q189A): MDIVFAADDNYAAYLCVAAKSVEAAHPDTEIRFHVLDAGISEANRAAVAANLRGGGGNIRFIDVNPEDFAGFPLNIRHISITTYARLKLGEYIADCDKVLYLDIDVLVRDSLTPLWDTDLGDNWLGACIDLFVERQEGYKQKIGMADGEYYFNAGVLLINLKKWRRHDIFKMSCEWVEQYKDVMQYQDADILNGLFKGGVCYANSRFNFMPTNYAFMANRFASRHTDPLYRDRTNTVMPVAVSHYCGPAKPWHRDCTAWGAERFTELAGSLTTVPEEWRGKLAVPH
Procedure: as §1

[3] = system: OC[C@H]1O[C@@H](O[C@H]2[C@H](O)[C@@H](O)C(O)O[C@@H]2CO)[C@H](O)[C@@H](O)[C@H]1O; test: purified protein, by the assay type; type: biochemical, Neisseria meningitidis; conditions: other: LgtC wild type; acceptor substrate; pH 7.5; 30.0 °C
[4] = system: two other galactosyltransferases; conditions: shown previously; cited from earlier work

Molecule | Function as a substrate for LgtC (transfer) ([1]; LgtC) | Rescue of activity of the Q189A mutant by added small molecules (rate increase) [2] | further results
C[C@H]1OC(O)[C@H](O)[C@@H](O)[C@@H]1O[C@@H]1O[C@H](CO)[C@H](O)[C@H](O)[C@H]1O (some centres unmarked) [6-deoxylactose] | shown not to function as a substrate |  | Action as an inhibitor of LgtC ([1]; LgtC): neither did it act as an inhibitor
CC(=O)O [acetate] |  | No rate increases were observed | 
O=CO [formate] |  | No rate increases were observed | 
LgtC (Neisseria meningitidis) |  |  | Km [3]: 20 mM
NC=O [formamide] |  | No rate increases were observed | 
galactosyl β-1,6-lactose | does not function as a substrate |  | 
O=c1ccn([C@@H]2O[C@H](COP(=O)(O)OP(=O)(O)O[C@H]3O[C@H](CO)[C@H](O)[C@H](O)[C@H]3F)[C@@H](O)[C@H]2O)c(=O)[nH]1 [UDP-2FGal, Uridine 5′-diphospho-(2-deoxy-2-fluoro)-α-D-galactopyranose, di-ammonium Salt, reference compound] | no transfer occurs |  | Inhibition of other galactosyltransferases [4]: shown to inhibit; Ki [1]: 0.002 mM
OC[C@@H]1C[C@H](O)[C@@H](O)[C@H](O[C@H]2[C@H](O)[C@@H](O)C(O)O[C@@H]2CO)O1 (some centres unmarked) [4-deoxylactose, 4′-Deoxylactose] | cannot function as a substrate |  | Ki [1]: 16 mM
[N-]=[N+]=[N-] [azide] |  | No rate increases were observed | 
CC(N)=O [acetamide] |  | No rate increases were observed | 
